Data set [1] has as its target tyrosinase. Briefly: Tyrosinase-inhibiting activity. In kind it is biochemical, mushroom. The following applies: for IC50: mushroom tyrosinase, tyrosine substrate, pH 6.8, 37° C., 10 minutes, absorbance at 475 nm. The method, then:
As an enzyme, the tyrosinase, which was extracted from mushroom and produced by SIGMA was purchased. Tyrosine, a substrate was dissolved into distilled water to a concentration of 0.3 mg/ml and each 1.0 ml of the solution was placed into a test tube. […] Ethanol and water were used to dilute the test compounds. As a control, 0.9 ml of 1:1 mixture of ethanol and water was used. […] The test tube was quickly cooled in an ice water bath to stop the reaction, and the absorbance was measured at 475 nm. […] From the inhibitions(%) of tyrosinase by a series of dilutions of test compounds, IC50, i.e., a concentration of test compound which inhibit the tyrosinase by 50% was calculated for each test compound.

A short description of data set [2]: DPPH (diphenylpicrylhydrazyl) radical-scavenging test. The following applies: 100 μM DPPH in ethanol, 37° C., 30 minutes, 515 nm. The method, then: Harmful radicals-scavenging activity of the compounds of Examples 1 through 6 were compared with those of conventional anti-oxidants by using DPPH(diphenylpicrylhydrazyl) radical-scavenging test as follows:
DPPH was dissolved into ethanol to a concentration of 100 μM. A series of dilutions of compounds of Examples 1 through 6, vitamin C, vitamin E or hydroquinone were prepared.
Ethanol and water were used to dilute the test compounds. As a control, 1:1 mixture of ethanol and water was used. The series of dilutions of each test compound were mixed with 1,900 μl of DPPH solution and the dilution solvent was added to 2.0 ml. The resulting mixture was reacted in a 37° C. incubator for 30 minutes. The absorbance was measured at 515 nm. The radical-scavenging activities of the compounds of Examples 1 through 6 and conventional anti-oxidants were calculated by employing the following equation: [formula]
From the radical scavenging activity(%) by a series of dilutions of test compounds, IC50, i.e., a concentration of test compound which scavenge the radical, DPPH by 50% was calculated for each test compound.
On the technique in general: The DPPH test is a chemical assay of radical scavenging.

Data set [3] relates to human skin. Briefly: human body patch test (skin safety). In kind it is in vivo. The following applies: for number of positive subject/the number of total subjects, 48 hours later / number of positive subject/the number of total subjects, 96 hours later: 0.2 wt % in cream, 20 μl finn chamber on brachium; for safety to human skin (in words): patch test conclusion. Here is the method:
In order to examine the safety of the compounds of Examples 1 through 6, the human body patch test was carried out as follows:
The brachium of thirty(30) healthy volunteers (15 females and 15 males) was thoroughly washed with 70% ethanol and applied with a finn chamber containing 20 μl of a conventional creamy preparation incorporating 0.2 wt % of one of the compound of Examples 1 to 6. The finn chamber was thoroughly bonded to the brachium using an adhesive tape. 48 hours later, the tape and chamber were removed, and the adherent site of the arm was wiped with a gauze to remove the remaining preparation and observed for redness(erythma), swelling, and papuol. 48 hours later, the site was examined again.
The results are shown in terms of the number of positive subject/the number of total subjects.

For data set [4], the system named is tyrosinase. The settings on record: background, known activity; cited from earlier work.

Here are results for ten compounds from patent US5523421A (Pacific Corporation, priority 1993, dated 1996).

In general, IC50 refers to the point on the concentration scale where inhibition reaches its midpoint. High values mean a need for much substance, low ones inhibition by little substance.

Consider `O=C(OCc1cc(=O)c(O)co1)c1ccc(O)cc1` [Example 1, 2-(4-hydroxybenzoyl)oxymethyl-5-hydroxy-4H-pyran-4-one], for which the IC50 in data set [1] was 10 µM. The same compound showed a 50% inhibitory concentration (IC50) in data set [2] of 1910 µM. Further, in data set [3], the “number of positive subject/the number of total subjects, 48 hours later” value is given as 0/30; the “number of positive subject/the number of total subjects, 96 hours later” value is 0/30; the “safety to human skin (in words)” value is on record as “safe to the human skin”.

The compound `O=C(OCc1cc(=O)c(O)co1)c1ccccc1O` [Example 2, 2-(2-hydroxybenzoyl)oxymethyl-5-hydroxy-4H-pyran-4-one] had an IC50 in data set [1] of 15 µM. Besides, the IC50 in data set [2] was 2230 µM. Besides, in data set [3], the “number of positive subject/the number of total subjects, 48 hours later” value is 2/30; the “number of positive subject/the number of total subjects, 96 hours later” value is reported as 0/30; the “safety to human skin (in words)” value is reported as “safe to the human skin”.

Regarding `O=C(OCc1cc(=O)c(O)co1)c1cccc(O)c1` [Example 3, 2-(3-hydroxybenzoyl)oxymethyl-5-hydroxy-4H-pyran-4-one], 15 µM corresponded to half-maximal inhibition in data set [1] (IC50). Further, half-maximal inhibition in data set [2] (IC50) was put at 2030 µM. Also, in data set [3], the “number of positive subject/the number of total subjects, 48 hours later” value is listed as 1/30; the “number of positive subject/the number of total subjects, 96 hours later” value is recorded as 1/30; the “safety to human skin (in words)” value is on record as “considered to be safe”. The “skin response after 96 hours (in words)” value in data set [3] (preparation with 0.2 wt % of compound, 96 hours) is recorded as “only one(1) among 30 subjects show a weak positive response”.

On to `O=C(OCc1cc(=O)c(O)co1)c1ccc(O)c(O)c1` [Example 4, 2-(3,4-dihydroxybenzoyl)oxymethyl-5-hydroxy-4H-pyran-4-one], for which, in data set [1], the “tyrosinase-inhibiting activity (in words)” value is “strongest tyrosinase-inhibiting activity” and the IC50 stood at 4 µM. For the same compound, the IC50 in data set [2] amounted to 11.5 µM. In data set [3], the “number of positive subject/the number of total subjects, 48 hours later” value is listed as 1/30; the “number of positive subject/the number of total subjects, 96 hours later” value is given as 0/30; the “safety to human skin (in words)” value is “safe to the human skin”.

`O=C(OCc1cc(=O)c(O)co1)c1cccc(O)c1O` [Example 5, 2-(2,3-dihydroxybenzoyl)oxymethyl-5-hydroxy-4H-pyran-4-one]: in data set [1], 14 µM corresponded to half-maximal inhibition (IC50). The compound also showed an IC50 in data set [2] of 11.3 µM. For the same compound, in data set [3], the “number of positive subject/the number of total subjects, 48 hours later” value was 1/30; the “number of positive subject/the number of total subjects, 96 hours later” value was 0/30; the “safety to human skin (in words)” value is recorded as “safe to the human skin”.

With `O=C(OCc1cc(=O)c(O)co1)c1ccc(O)cc1O` [Example 6, 2-(2,4-dihydroxybenzoyl)oxymethyl-5-hydroxy-4H-pyran-4-one], in data set [1], the “tyrosinase-inhibiting activity (in words)” value is “strongest tyrosinase-inhibiting activity” and the half-inhibitory concentration (IC50) amounted to 6 µM. Moreover, in data set [2], half-maximal inhibition (IC50) was put at 15 µM. For the same compound, in data set [3], the “number of positive subject/the number of total subjects, 48 hours later” value was 0/30; the “number of positive subject/the number of total subjects, 96 hours later” value was 0/30; the “safety to human skin (in words)” value is given as “safe to the human skin”.

In data set [2], `Oc1ccc(O)cc1` [Hydroquinone, reference compound] had a half-maximal inhibitory concentration (IC50) of 25.4 µM.

As to `O=c1cc(CO)occ1O` [Kojic acid], in data set [4], the “tyrosinase inhibition (in words, prior art)” value is reported as “strongly inhibiting the action of tyrosinase”.

`O=C1O[C@H]([C@@H](O)CO)C(O)=C1O` [Vitamin C, reference compound] returned a half-inhibitory concentration (IC50) in data set [2] of 29.2 µM.

As for “tocopherol [Vitamin E, reference compound]”, half-maximal inhibition in data set [2] (IC50) was put at 34.8 µM. This IC50 and that of the compound before are within 1.5-fold of each other.
